# Like-named read-outs stand apart in the source and are kept apart here.
# Target: AM2 (Influenza A virus, UniProt P0DOF5)
# Experiment: biochemical
# Format: biochemical
# Conditions: for % Activity: AM2; for change of potency on replacing or installing the head group: compared with the parent compound (BL-1743; 12 for 13)
# Chain of AM2 (P0DOF5 whole entry): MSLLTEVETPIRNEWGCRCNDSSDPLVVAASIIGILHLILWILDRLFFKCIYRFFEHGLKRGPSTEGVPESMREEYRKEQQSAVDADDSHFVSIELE
SMILES,% Activity,change of potency on replacing or installing the head group,further results
"C1CCC2CN(C3=NCCN3)CCC2C1 (mixture of isomers) [Compound 15, 2-(octahydroisoquinolin-2(1H)-yl)-4,5-dihydro-1H-imidazol-1-ium iodide]",,,IC50: 29.5 µM
"CN1CCC2(CCCCC2)CC1.Cl [Compound 3, 3-methyl-3-azoniaspiro[5.5]undecane chloride]",7%,,"IC50 (Table 1, read-out: IC50): 20.6 µM"
"NC(=O)N1CCC2(CCCCC2)CC1 [Compound 4, 3-Aza-spiro[5.5]undecane-3-carboxylic acid amide]",30%,no improvement of potency,
"NC(=S)N1CCC2(CCCCC2)CC1 [Compound 5, 3-Aza-spiro[5,5]undecane-3-carbothioic acid amide]",60%,no improvement of potency,
"NS(=O)(=O)N1CCC2(CCCCC2)CC1 [Compound 6, 3-Aza-spiro[5,5]undecane-3-sulfonic acid amide]",6 (14%),Increases of potency,"IC50 (Table 1, read-out: IC50): 15.3 µM"
"N=C(N)N1CCC2(CCCCC2)CC1 [Compound 7, 3-Aza-spiro[5,5]undecane-3-carboxamidine]",13%,Increases of potency,"IC50 (Table 1, read-out: IC50): 22.8 µM"
"NC1CCC2(CCCCC2)CC1 [Compound 8, Spiro[5.5]undec-3-ylamine]",11%,,
"O=C1CCCC(=O)C12CCNCC2 [Compound 10, 3-Aza-spiro[5.5]undecane-7,11-dione]",100%,,"IC50 (SAR of BL-1743, read-out: IC50): > 100 µM; activity at 100 μM (at 100 μM tested): no activity"
"S=C1CCCC(=S)C12CCNCC2 [Compound 11, 3-Aza-spiro[5.5]undecane-7,11-dithione]",12%,,"IC50 (SAR of BL-1743, read-out: IC50): 37.6 µM"
"C1CCC2(C1)CCNCC2 [Compound 12, 8-Aza-spiro[4.5]decane]",12 (16.2%),,"IC50 (Table 1, read-out: IC50): 8.14 µM"
"C1CCC2(C1)CCN(C1=NCCN1)CC2 [Compound 13, 8-(4,5-Dihydro-1H-imidazol-2-yl)-8-aza-spiro[4.5]decane]",,detrimental to the activity,
"NC1CC2CC1C1CCCC21 (stereo not drawn) [Compound 16, tricyclo[5.2.1.0 2,6]dec-8-ylaminium chloride]",,,IC50: 15.3 µM
"CNC1CC2CC1C1CCCC21 (stereo not drawn) [Compound 17, N-methyl-N-tricyclo[5.2.1.0 2,6]dec-8-ylaminium chloride]",,,IC50: 13.6 µM
"OC(c1cnc[nH]1)N1CCC2(CCCCC2)CC1 (stereo not drawn) [Compound 19, (3-Aza-spiro[5.5]undec-3-yl)-(3H-imidazol-4-yl)-methanol]",30%,,
"CC1(C)CCNCC1.Cl [Compound 22, 4,4-Dimethyl-piperidine hydrochloride]",22 (55%),,
"C1CCC2(CC1)CCNC2.Cl [Compound 23, 2-Aza-spiro[4.5]decane hydrochloride]",23 (6%),,

# Source: patent US9453005B2, “Inhibition of influenza M2 proton channel” (The Trustees Of The University Of Pennsylvania, priority 2008, dated 2016)
